Data from the NIST ThermoML archive (doi:10.1021/acs.jced.8b00157).

Experiment: an = ratio of the nth substance listed
Settings: 100 kPa, Liquid, Buoyancy - hydrostatic balance, a2 = 1.3

[F][Al]([F])[F] [aluminum fluoride] + [F-].[K+]
Settings	mass density [kg/m3]
953.37 K	1875
953.87 K	1875
954.03 K	1875
954.2 K	1874
954.52 K	1874
954.85 K	1873
955.23 K	1873
955.66 K	1873
955.95 K	1873
956.45 K	1873
957 K	1872
957.09 K	1872
957.11 K	1872
957.15 K	1872
957.8 K	1871
958.17 K	1871
958.39 K	1870
958.54 K	1870
958.92 K	1870
959.36 K	1870
959.42 K	1870
959.67 K	1870
960.14 K	1869
960.36 K	1869
961.06 K	1868
961.27 K	1868
961.32 K	1868
961.88 K	1868
961.97 K	1868
962.58 K	1867
962.79 K	1866
962.82 K	1867
963.09 K	1867
963.44 K	1866
963.53 K	1866
964.23 K	1865
964.32 K	1865
964.85 K	1865
965.05 K	1865
965.38 K	1865
965.94 K	1864
966 K	1864
966.18 K	1864
966.56 K	1864
966.7 K	1863
967.24 K	1863
967.73 K	1862
967.75 K	1862
968.06 K	1862
968.94 K	1862
968.96 K	1862
969.15 K	1861
969.33 K	1861
969.99 K	1861
970.3 K	1861
970.44 K	1860
970.89 K	1860
970.98 K	1859
971.14 K	1860
971.87 K	1859
972.13 K	1859
972.25 K	1859
972.6 K	1859
972.98 K	1858
973.21 K	1858
973.66 K	1858
973.77 K	1858
973.95 K	1857
974.37 K	1857
974.77 K	1857
975.15 K	1856
975.67 K	1856
975.77 K	1856
975.97 K	1856
976.61 K	1855
976.86 K	1855
976.9 K	1855
977.25 K	1854
977.4 K	1854
977.66 K	1852
978.13 K	1852
978.34 K	1852
978.99 K	1852
979.14 K	1851
979.65 K	1850
979.83 K	1851
980.46 K	1850
980.58 K	1850
980.92 K	1850
980.95 K	1850
981.3 K	1849
981.38 K	1849
982.18 K	1849
982.5 K	1849
982.75 K	1848
983.17 K	1848
983.33 K	1847
983.99 K	1847
984.08 K	1847
984.17 K	1847
984.63 K	1846
985 K	1846
985.5 K	1846
985.61 K	1846
986.09 K	1845
986.53 K	1845
986.96 K	1845
987.09 K	1845
987.31 K	1844
987.8 K	1844
988.08 K	1844
988.26 K	1844
988.64 K	1843
988.78 K	1844
989.33 K	1843
989.41 K	1843
990.26 K	1842
990.32 K	1842
